Experimental data from patent publication US20250113823A1, “Arthropod Control Compositions” (priority 2022, published 2025).
Read-outs that look alike come from different tables or passages of the source.

Assays:
[1] = system: Aedes aegypti; assay: Warm Body assay, mosquito landings on treated warm body; format: in vivo; conditions: for pest or weed control at 1 % / pest or weed control at 0.04 %: read-out: repellence; for pest or weed control at 0.04 %: intermediate concentration of 0.04% (Table 3); for pest or weed control at 0.0016 %: read-out: reduce the number of mosquito landings
Experimental: The arthropod controlling effect according to the present invention is determined on mosquitoes using an adapted Warm Body assay as defined in Kröber T, Kessler S, Frei J, Bourquin M, Guerin PM. An in vitro assay for testing mosquito controlling compounds employing a warm body and carbon dioxide as a behavioral activator. J Am Mosq Control Assoc. 2010; 26: 381-386. Further information is provided in the accompanying examples
The controlling effect, repellence & spatial repellence, according to the present invention is determined by testing the Warm Body assay against the yellow fever mosquito, Aedes aegypti Rockefeller strain. […] Observations of controlling efficacy were made on host-seeking females of uniform age, 5 to 10 days old selected as mentioned in the publication mentioned hereinabove. Tested hungry females had access to 10% sugar solution but were not blood-fed. Further information is provided in the accompanying examples.
The published protocol has been adapted in not manually counting the landing mosquitoes but automatically using an automatic counting software, the switch from Anopheles gambiae to A. aegypti led to a decrease of mosquitoes' number placed in the tested cage due to the size difference (i.e. 30 mosquitoes instead of 50) and to an increase of lighting as A. aegypti is a diurnal mosquitoes (i.e. 150 lux instead of 4 lux). Further information is provided in the accompanying examples. […]
(§1) The controlling effect according to the present invention was assessed using an adapted Warm Body assay as defined in Kröber T, Kessler S, Frei J, Bourquin M, Guerin P M. 2010. J Am Mosq Control Assoc. 26: 381-386. In this in-vitro assay the number of mosquito landing on a warm body, simulating an attractive host treated with the tested stimuli, was measured in order to assess the repellence effect.
The published protocol has been adapted as the switch from Anopheles gambiae to Aedes aegypti led to a decrease of mosquitoes placed in the tested cage due to the size difference (i.e. 30 mosquitoes instead of 50) and to an increase of lighting since A. aegypti is a diurnal mosquitoes (i.e. 150 lux instead of 4 lux).
(§2) On the sandblasted glass Petri dish covering the warm body (28.3 cm^2), 100 μL of the compounds diluted at different concentrations in ethanol was applied. The number of mosquito landing on the warm body was counted for each stimulus and pure ethanol (solvent) as control.

[2] = system: Anopheles gambiae; assay: as above; format: in vivo; conditions: Anopheles gambiae, read-out: Percentage of repellence of mosquitoes Anopheles gambiae landing on the warm body; for pest or weed control at 178 µg/mL: 0.178 mg/mL (Table 4); for pest or weed control at 267 µg/mL: 0.267 mg/mL (Table 4); for pest or weed control at 400 µg/mL: 0.4 mg/mL (Table 4); for pest or weed control at 4470 µg/mL: 4.47 mg/mL (Table 4); for pest or weed control at 10000 µg/mL: 10 mg/mL (Table 4)
Experimental: Anopheles gambiae is also a model organism as it is anthropophilic and transmits malaria.
as §1, §2

[3] = system: Ixodes ricinus; assay: Warm Plate assay, tick repellence; conditions: for pest or weed control at 400 µg/mL / pest or weed control at 2000 µg/mL / pest or weed control at 10000 µg/mL: Ixodes ricinus, read-out: Percentage of repellence of ticks Ixodes ricinus on the warm plate; for ticks repelled: concentration of 1% (Table 10)
[4] = Aedes aegypti, 0.016 mg/mL (Table 3), read-out: Percentage of repellence of mosquitoes Aedes aegypti landing on the warm body
[5] = Aedes aegypti, 0.4 mg/mL (Table 3), read-out: Percentage of repellence of mosquitoes Aedes aegypti landing on the warm body
[6] = Aedes aegypti, 10 mg/mL (Table 3), read-out: Percentage of repellence of mosquitoes Aedes aegypti landing on the warm body
[7] = Aedes aegypti, highest tested concentration, 1% (Table 3)
[8] = Aedes aegypti, read-out: Percentage of repellence of mosquitoes Aedes aegypti landing on the warm body
[9] = Aedes aegypti, lowest concentration of 0.0016% (Table 3)

CCCc1ccc2c(c1)OC(C(C)=O)O2 (centres unmarked) [compound 908, 1-(5-propyl-1,3-benzodioxol-2-yl)ethanone]
pest or weed control at 16 µg/mL [1, 4]: 10%
pest or weed control at 400 µg/mL [1, 5]: 37%
pest or weed control at 10000 µg/mL [1, 6]: 85%
pest or weed control at 178 µg/mL [2]: 61%
pest or weed control at 267 µg/mL [2]: 95%
pest or weed control at 400 µg/mL [2]: 51%
pest or weed control at 4470 µg/mL [2]: 74%
pest or weed control at 10000 µg/mL [2]: 84%

CC=Cc1cccc(OC)c1OC [compound 1125, 1,2-dimethoxy-3-prop-1-enylbenzene]
pest or weed control at 16 µg/mL [1, 4]: 32%
pest or weed control at 400 µg/mL [1, 5]: 78%
pest or weed control at 10000 µg/mL [1, 6]: 92%
pest or weed control at 1 % [1, 7]: > 90%
pest or weed control at 0.04 % ([1]; Aedes aegypti): > 75%
repellence of ticks Ixodes ricinus ([3]; 1% of stimulus applied (Table 9)): above 90%
pest or weed control at 400 µg/mL [3]: 25%
pest or weed control at 2000 µg/mL [3]: 36.4%
pest or weed control at 10000 µg/mL [3]: 91.7%

C=CCc1cc(OC)c(O)c(OC)c1 [compound 1191, 4-allyl-2,6-dimethoxyphenol]
pest or weed control at 3.2 µg/mL ([1]; Aedes aegypti, 0.0032 mg/mL (Table 1), read-out: Percentage of repellence of mosquitoes Aedes aegypti landing on the warm body): 60%
pest or weed control at 7.1 µg/mL ([1]; Aedes aegypti, 0.0071 mg/mL (Table 1), read-out: Percentage of repellence of mosquitoes Aedes aegypti landing on the warm body): 52%
pest or weed control at 16 µg/mL ([1]; Aedes aegypti, 0.016 mg/mL (Table 1), read-out: Percentage of repellence of mosquitoes Aedes aegypti landing on the warm body): 70%
pest or weed control at 35.7 µg/mL ([1]; Aedes aegypti, 0.0357 mg/mL (Table 1), read-out: Percentage of repellence of mosquitoes Aedes aegypti landing on the warm body): 68%
pest or weed control at 53 µg/mL ([1]; Aedes aegypti, 0.053 mg/mL (Table 1), read-out: Percentage of repellence of mosquitoes Aedes aegypti landing on the warm body): 67%
pest or weed control at 80 µg/mL ([1]; Aedes aegypti, 0.08 mg/mL (Table 1), read-out: Percentage of repellence of mosquitoes Aedes aegypti landing on the warm body): 62%
pest or weed control at 119 µg/mL ([1]; Aedes aegypti, 0.119 mg/mL (Table 1), read-out: Percentage of repellence of mosquitoes Aedes aegypti landing on the warm body): 50%
pest or weed control at 178 µg/mL ([1]; Aedes aegypti, 0.178 mg/mL (Table 1), read-out: Percentage of repellence of mosquitoes Aedes aegypti landing on the warm body): 86%
pest or weed control at 267 µg/mL ([1]; Aedes aegypti, 0.267 mg/mL (Table 1), read-out: Percentage of repellence of mosquitoes Aedes aegypti landing on the warm body): 86%
pest or weed control at 400 µg/mL ([1]; Aedes aegypti, 0.4 mg/mL (Table 1), read-out: Percentage of repellence of mosquitoes Aedes aegypti landing on the warm body): 93%
pest or weed control at 598 µg/mL ([1]; Aedes aegypti, 0.598 mg/mL (Table 1), read-out: Percentage of repellence of mosquitoes Aedes aegypti landing on the warm body): 98%
pest or weed control at 890 µg/mL ([1]; Aedes aegypti, 0.89 mg/mL (Table 1), read-out: Percentage of repellence of mosquitoes Aedes aegypti landing on the warm body): 98%
pest or weed control at 2000 µg/mL ([1]; Aedes aegypti, 2 mg/mL (Table 1), read-out: Percentage of repellence of mosquitoes Aedes aegypti landing on the warm body): 97%
pest or weed control at 4470 µg/mL ([1]; Aedes aegypti, 4.47 mg/mL (Table 1), read-out: Percentage of repellence of mosquitoes Aedes aegypti landing on the warm body): 98%
pest or weed control at 10000 µg/mL ([1]; Aedes aegypti, 10 mg/mL (Table 1), read-out: Percentage of repellence of mosquitoes Aedes aegypti landing on the warm body): 100%
reduce mosquito landing ([1]; since the lowest concentrations assessed (Table 1)): ≥ 50%
pest or weed control at 400 µg/mL [3]: 41.7%
pest or weed control at 2000 µg/mL [3]: 58.3%
pest or weed control at 10000 µg/mL [3]: 91.7%

CC=Cc1ccc(OC)c(OC)c1 [compound 1195, 1,2-dimethoxy-4-prop-1-enylbenzene]
pest or weed control at 16 µg/mL [1, 8]: 56%
pest or weed control at 400 µg/mL [1, 8]: 69%
pest or weed control at 10000 µg/mL [1, 8]: 100%
pest or weed control at 0.0016 % ([1]; Aedes aegypti): > 50%
pest or weed control at 1 % ([1]; Aedes aegypti): > 90%
mosquito landing within the two minutes of experiments ([1]; highest tested concentration, 1% (Table 3)): protect the attractive stimulus for any mosquito landing
pest or weed control at 400 µg/mL [3]: 46.2%
pest or weed control at 2000 µg/mL [3]: 76.9%
pest or weed control at 10000 µg/mL [3]: 100%
ticks repelled [3]: repel all the ticks

COc1ccc(OC)c(OC)c1 [compound 1201, 1,2,4-trimethoxybenzene]
pest or weed control at 3.2 µg/mL ([1]; Aedes aegypti, 0.0032 mg/mL (Table 2), read-out: Percentage of repellence of mosquitoes Aedes aegypti landing on the warm body): 46%
pest or weed control at 16 µg/mL ([1]; Aedes aegypti, 0.016 mg/mL (Table 2), read-out: Percentage of repellence of mosquitoes Aedes aegypti landing on the warm body): 82%
pest or weed control at 35.7 µg/mL ([1]; Aedes aegypti, 0.0357 mg/mL (Table 2), read-out: Percentage of repellence of mosquitoes Aedes aegypti landing on the warm body): 58%
pest or weed control at 80 µg/mL ([1]; Aedes aegypti, 0.08 mg/mL (Table 2), read-out: Percentage of repellence of mosquitoes Aedes aegypti landing on the warm body): 72%
pest or weed control at 178 µg/mL ([1]; Aedes aegypti, 0.178 mg/mL (Table 2), read-out: Percentage of repellence of mosquitoes Aedes aegypti landing on the warm body): 63%
pest or weed control at 400 µg/mL ([1]; Aedes aegypti, 0.4 mg/mL (Table 2), read-out: Percentage of repellence of mosquitoes Aedes aegypti landing on the warm body): 79%
pest or weed control at 890 µg/mL ([1]; Aedes aegypti, 0.89 mg/mL (Table 2), read-out: Percentage of repellence of mosquitoes Aedes aegypti landing on the warm body): 95%
pest or weed control at 2000 µg/mL ([1]; Aedes aegypti, 2 mg/mL (Table 2), read-out: Percentage of repellence of mosquitoes Aedes aegypti landing on the warm body): 89%
pest or weed control at 10000 µg/mL ([1]; Aedes aegypti, 10 mg/mL (Table 2), read-out: Percentage of repellence of mosquitoes Aedes aegypti landing on the warm body): 96%
decrease the number of mosquito landings ([1]; lowest doses tested (0.00032% & 0.0016%) (Table 2)): two folds
pest or weed control at 400 µg/mL [3]: 0%
pest or weed control at 2000 µg/mL [3]: 23.1%
pest or weed control at 10000 µg/mL [3]: 100%
ticks repelled [3]: repel all the ticks

CC(C)c1ccc2c(c1)OCC(=O)CO2 [compound 1232, isopropyl-2H,4H-1,5-benzodioxepin-3-one, 7-]
pest or weed control at 16 µg/mL [1, 4]: 0%
pest or weed control at 400 µg/mL [1, 5]: 32%
pest or weed control at 10000 µg/mL [1, 6]: 86%
pest or weed control at 178 µg/mL [2]: 27%
pest or weed control at 267 µg/mL [2]: 34%
pest or weed control at 400 µg/mL [2]: 65%
pest or weed control at 4470 µg/mL [2]: 91%
pest or weed control at 10000 µg/mL [2]: 86%

CCOc1cc(COC)ccc1O [compound 1271, 2-ethoxy-4-(methoxymethyl)phenol]
pest or weed control at 16 µg/mL [1, 4]: 29%
pest or weed control at 400 µg/mL [1, 5]: 84%
pest or weed control at 10000 µg/mL [1, 6]: 96%
pest or weed control at 1 % [1, 7]: > 90%
pest or weed control at 0.04 % ([1]; Aedes aegypti): > 75%
pest or weed control at 4470 µg/mL [2]: 95%
pest or weed control at 10000 µg/mL [2]: 92%

COc1cc(C(C)=O)ccc1O [compound 1468, 1-(4-hydroxy-3-methoxyphenyl)ethanone]
pest or weed control at 16 µg/mL [1, 4]: 64%
pest or weed control at 400 µg/mL [1, 5]: 74%
pest or weed control at 10000 µg/mL [1, 6]: 90%
pest or weed control at 0.0016 % [1, 9]: > 50%
pest or weed control at 4470 µg/mL [2]: 59%
pest or weed control at 10000 µg/mL [2]: 79%

COc1ccc(CC(=O)O)cc1OC [compound 1564, 2-(3,4-dimethoxyphenyl)acetic acid]
pest or weed control at 16 µg/mL [1, 4]: 24%
pest or weed control at 400 µg/mL [1, 5]: 69%
pest or weed control at 10000 µg/mL [1, 6]: 82%
pest or weed control at 178 µg/mL [2]: 42%
pest or weed control at 267 µg/mL [2]: 58%
pest or weed control at 400 µg/mL [2]: 9%
pest or weed control at 4470 µg/mL [2]: 97%
pest or weed control at 10000 µg/mL [2]: 97%

COc1cc(C(=O)O)cc(OC)c1O [compound 2270, 4-hydroxy-3,5-dimethoxybenzoic acid]
pest or weed control at 16 µg/mL [1, 4]: 67%
pest or weed control at 400 µg/mL [1, 5]: 62%
pest or weed control at 10000 µg/mL [1, 6]: 87%
pest or weed control at 0.0016 % [1, 9]: > 50%

CCOc1cc(C=O)ccc1OC [compound 2272, 3-ethoxy-4-methoxybenzaldehyde]
pest or weed control at 16 µg/mL [1, 4]: 0%
pest or weed control at 400 µg/mL [1, 5]: 77%
pest or weed control at 10000 µg/mL [1, 6]: 89%
pest or weed control at 0.04 % ([1]; Aedes aegypti): > 75%

CCOc1c(OC)cccc1OC [compound 2276, 2-ethoxy-1,3-dimethoxybenzene]
pest or weed control at 16 µg/mL [1, 4]: 0%
pest or weed control at 400 µg/mL [1, 5]: 0%
pest or weed control at 10000 µg/mL [1, 6]: 98%
pest or weed control at 1 % [1, 7]: > 90%
